Tests used:
[1] = test system: HUVECs; test: Tube formation assay (anti-angiogenic activity); assay type: cell-based, human; settings: incubation 16 to 18 hours; for IC50: Homo sapiens, HUVEC
Description: Angiogenesis is a phenomenon that includes different processes, such as endothelial cell proliferation, migration and differentiation that lead to the formation of new blood vessels. Tube formation assay is a standard in vitro test to assess angiogenesis: briefly, human Umbilical Vein Endothelial cells (hereafter "HUVECs") cultivated on a gelled basement matrix spontaneously proliferate, migrate and differentiate to form tube-like structures, that appear elongated and that connect to each other to form a network.
HUVECs were cultivated in Endothelial Cell Growth Medium (cat.no. C-22010 from Promocell) supplemented with 1% PenStrep (hereafter "HUVEC medium"). On day 0, HUVECs were harvested and transferred into a 384-well plate precoated with 10 µl/well of Cultrex UltiMatrix Reduced Growth factor basement membrane (cat.no. BME001-10 from BioTechne), according to the manufacturer's instructions, at a density of 5000 cells/well in HUVEC medium. Compounds to be tested were then added onto the cells and incubated for 16 to 18 hours at 37°C. After this incubation period, the cells were stained with calcein-AM (cat.no. 10462052 from Fisher Scientific) and pictures were acquired using a confocal fluorescent microscope (IXM from Molecular Devices). Tube formation was measured with MetaXpress® Software.

[2] = test system: RD cells; test: Cytotoxicity assay (CellTiter-Glo 2.0) on RD cells; assay type: cell-based, Human; settings: for IC50: Homo sapiens
Description: (§1) Cytotoxicity assays consist in treating cells with compounds and assessing remaining viability after a defined incubation time, depending on the cell line. CellTiter-Glo® 2.0 reagent allows viability measurement by quantification of ATP present, which is an indicator of metabolically active cells.
(§2) The cancer cell lines were cultivated in their respective growth medium (see tables 6a and 6b). On day 0 of the cytotoxicity assay, the cells were harvested and seeded into a 384-well plate at a defined density in their respective growth medium (see tables 6a and 6b). Compounds to be tested were then added onto the cells and incubated for a defined duration (see tables 6a and 6b). Following incubation, CellTiter-Glo® 2.0 reagent (cat.no. G9241 from Promega) was added into the wells (vol/vol, according to the manufacturer's recommendations), plates were gently shaken and incubated for 10 minutes in the dark at room temperature. Bioluminescence was then measured with a multimode plate reader (Victor Nivo from Perkin Elmer), and cell viability and relative IC50 were determined. Table 6a: Cancer cell characteristics, culture and cytotoxic assay conditions

[3] = test system: EoL-1 cells; test: Cytotoxicity assay (CellTiter-Glo 2.0) on EoL-1 cells; assay type: cell-based, Human; settings: incubation 1 day; for IC50: Homo sapiens, EOL1, 24 h
Description: as §1, §2

[4] = test system: MDA-MB-231 cells; test: Cytotoxicity assay (CellTiter-Glo 2.0) on MDA-MB-231 cells; assay type: cell-based, Human; settings: incubation 3 days; for IC50: Homo sapiens, 72 h
Description: as §1, §2

[5] = test system: 4T1 cells; test: Cytotoxicity assay (CellTiter-Glo 2.0) on 4T1 cells; assay type: cell-based, Mouse; settings: incubation 2 days; for IC50: Mus musculus, 48 h
Description: as §1, §2

SMILES	IC50 [1] [µM]	Angiogenesis inhibition [1]	Cytotoxicity ([2]; 2 day-treatment)	Cytotoxicity ([2]; 4 day-treatment)	IC50 ([2]; 48 h, 2 day-treatment) [µM]	IC50 ([2]; 96 h, 4 day-treatment) [µM]	IC50 [3] [µM]	Cytotoxicity [3]	IC50 [4] [µM]	Cytotoxicity [4]	IC50 [5] [µM]	Cytotoxicity [5]
CN(C)Cc1ccc(-n2nc(C(C)(C)C)cc2NC(=O)Nc2ccc(Oc3ccnc4c3CCC(=O)N4)cc2C(F)(F)F)cc1 [Compound 034, 1-[5-tert-butyl-2-[4-[(dimethylamino)methyl]phenyl]pyrazol-3-yl]-3-[4-[(7-oxo-6,8-dihydro-5H-1,8-naphthyridin-4-yl)oxy]-2-(trifluoromethyl)phenyl]urea]	< 0.1	+++ (angiogenesis inhibition ≥ 80%)	+++ (cytotoxicity ≥ 85%)	+++ (cytotoxicity ≥ 85%)	1 to 5	1 to 5	0.001 to 0.01	++ (50% ≤ cytotoxicity < 85%)	1 to 5	+++ (cytotoxicity ≥ 85%)	< 1	+++ (cytotoxicity ≥ 85%)
CSc1cc(Oc2ccnc3c2OCC(=O)N3)ccc1NC(=O)Nc1cc(C(C)(C)C)nn1C [Compound 022, 1-(5-tert-butyl-2-methyl-pyrazol-3-yl)-3-[2-methylsulfanyl-4-[(3-oxo-4H-pyrido[3,2-b][1,4]oxazin-8-yl)oxy]phenyl]urea]	< 0.1	++ (80% > angiogenesis inhibition ≥ 50%)	++ (50% ≤ cytotoxicity < 85%)	++ (50% ≤ cytotoxicity < 85%)	1 to 5	1 to 5	< 0.001	+++ (cytotoxicity ≥ 85%)	1 to 5	++ (50% ≤ cytotoxicity < 85%)	1 to 5	+++ (cytotoxicity ≥ 85%)
CSc1cc(Oc2ccnc3c2CCC(=O)N3)ccc1NC(=O)Nc1cc(C(C)(C)C)on1 [Compound 026, 1-(5-tert-butylisoxazol-3-yl)-3-[2-methylsulfanyl-4-[(7-oxo-6,8-dihydro-5H-1,8-naphthyridin-4-yl)oxy]phenyl]urea]	0.1 to 0.5	+++ (angiogenesis inhibition ≥ 80%)	++ (50% ≤ cytotoxicity < 85%)	++ (50% ≤ cytotoxicity < 85%)	1 to 5	1 to 5	< 0.001	+++ (cytotoxicity ≥ 85%)	1 to 5	++ (50% ≤ cytotoxicity < 85%)	1 to 5	+++ (cytotoxicity ≥ 85%)
CSc1cc(Oc2ccnc3c2OCC(=O)N3)ccc1NC(=O)Nc1cc(C(C)(C)C)nn1-c1ccc(CCN2CCOCC2)cc1 [Compound 052, 1-[5-tert-butyl-2-[4-[2-(morpholino)ethyl]phenyl]pyrazol-3-yl]-3-[2-methylsulfanyl-4-[(3-oxo-4H-pyrido[3,2-b][1,4]oxazin-8-yl)oxy]phenyl]urea]	< 0.1	+++ (angiogenesis inhibition ≥ 80%)	++ (50% ≤ cytotoxicity < 85%)	++ (50% ≤ cytotoxicity < 85%)	1 to 5	1 to 5	0.001 to 0.01	+++ (cytotoxicity ≥ 85%)	1 to 5	+++ (cytotoxicity ≥ 85%)	< 1	+++ (cytotoxicity ≥ 85%)
CC(C)(C)c1cc(NC(=O)Nc2ccc(Oc3ccnc4c3CCC(=O)N4)cc2C(F)(F)F)n(-c2cccnc2)n1 [Compound 030, 1-[5-tert-butyl-2-(3-pyridyl)pyrazol-3-yl]-3-[4-[(7-oxo-6,8-dihydro-5H-1,8-naphthyridin-4-yl)oxy]-2-(trifluoromethyl)phenyl]urea]	< 0.1	+++ (angiogenesis inhibition ≥ 80%)	++ (50% ≤ cytotoxicity < 85%)	++ (50% ≤ cytotoxicity < 85%)	5 to 10	5 to 10	0.01 to 0.1	++ (50% ≤ cytotoxicity < 85%)	1 to 5	++ (50% ≤ cytotoxicity < 85%)	1 to 5	+++ (cytotoxicity ≥ 85%)
CSc1cc(Oc2ccnc3c2OCC(=O)N3)ccc1NC(=O)Nc1cc(C(C)(C)C)nn1-c1cccc(CN(C)C)c1 [Compound 041, 1-[5-tert-butyl-2-[3-(dimethylaminomethyl)phenyl]pyrazol-3-yl]-3-[2-methylsulfanyl-4-[(3-oxo-4H-pyrido[3,2-b][1,4]oxazin-8-yl)oxy]phenyl]urea]	< 0.1	+++ (angiogenesis inhibition ≥ 80%)	+++ (cytotoxicity ≥ 85%)	+++ (cytotoxicity ≥ 85%)	1 to 5	1 to 5	0.001 to 0.01	+++ (cytotoxicity ≥ 85%)	1 to 5	+++ (cytotoxicity ≥ 85%)	< 1	+++ (cytotoxicity ≥ 85%)
CC(C)(C)c1cc(NC(=O)Nc2ccc(Oc3ccnc4c3OCC(=O)N4)cc2C(F)(F)F)n(-c2cncc(F)c2)n1 [Compound 039, 1-[5-tert-butyl-2-(5-fluoro-3-pyridyl)pyrazol-3-yl]-3-[4-[(3-oxo-4H-pyrido[3,2-b][1,4]oxazin-8-yl)oxy]-2-(trifluoromethyl)phenyl]urea]	< 0.1	+++ (angiogenesis inhibition ≥ 80%)	++ (50% ≤ cytotoxicity < 85%)	+ (20 % ≤ cytotoxicity < 50%)	1 to 5	5 to 10	0.01 to 0.1	++ (50% ≤ cytotoxicity < 85%)	1 to 5	++ (50% ≤ cytotoxicity < 85%)	< 1	+++ (cytotoxicity ≥ 85%)
CC(C)(C)c1cc(NC(=O)Nc2ccc(Oc3ccnc4c3CCC(=O)N4)cc2C(F)(F)F)n(-c2cccc(F)c2)n1 [Compound 015, 1-[5-tert-butyl-2-(3-fluorophenyl)pyrazol-3-yl]-3-[4-[(7-oxo-6,8-dihydro-5H-1,8-naphthyridin-4-yl)oxy]-2-(trifluoromethyl)phenyl]urea]	< 0.1	+++ (angiogenesis inhibition ≥ 80%)	++ (50% ≤ cytotoxicity < 85%)	++ (50% ≤ cytotoxicity < 85%)	5 to 10	1 to 5	0.01 to 0.1	++ (50% ≤ cytotoxicity < 85%)	1 to 5	++ (50% ≤ cytotoxicity < 85%)	< 1	+++ (cytotoxicity ≥ 85%)
CSc1cc(Oc2ccnc3c2CCC(=O)N3)ccc1NC(=O)Nc1cc(C(C)(C)C)no1 [Compound 008, 1-(3-(tert-butyl)isoxazol-5-yl)-3-(2-(methylthio)-4-((7-oxo-5,6,7,8-tetrahydro-1,8-naphthyridin-4-yl)oxy)phenyl)urea]	< 0.1	+++ (angiogenesis inhibition ≥ 80%)	++ (50% ≤ cytotoxicity < 85%)	+++ (cytotoxicity ≥ 85%)	< 1	< 1	0.001 to 0.01	+++ (cytotoxicity ≥ 85%)	< 1	++ (50% ≤ cytotoxicity < 85%)	< 1	+++ (cytotoxicity ≥ 85%)

Source: patent EP4289427A1, “DIHYDRO[1,8]NAPHTHYRIDIN-7-ONE AND PYRIDO[3,2-B][1,4]OXAZIN-3-ONE FOR USE IN TREATING CANCER, AND METASTASES IN PARTICULAR” (Anagenesis Biotechnologies, priority 2022, dated 2023)
